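GI50 = concentration required for 50% inhibition of growth. TGI denotes the concentration required for complete inhibition of growth.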
Assays:
Experiment in all cases: growth of human tumour cells (NCI), 384-well format
HL-60(TB) leukemia = tested on: HL-60(TB) leukemia
NCI-H23 lung = tested on: NCI-H23 lung
TK-10 renal = tested on: TK-10 renal
786-0 renal = tested on: 786-0 renal
UO-31 renal = tested on: UO-31 renal
RPMI-8226 leukemia = tested on: RPMI-8226 leukemia
SNB-75 CNS = tested on: SNB-75 CNS
HCT-116 colon = tested on: HCT-116 colon
NCI-H522 lung = tested on: NCI-H522 lung
MDA-MB-468 breast = tested on: MDA-MB-468 breast
MDA-MB-435 melanoma = tested on: MDA-MB-435 melanoma
SF-268 CNS = tested on: SF-268 CNS
MOLT-4 leukemia = tested on: MOLT-4 leukemia
NCI-H460 NSCLC = tested on: NCI-H460 NSCLC
HS 578T breast = tested on: HS 578T breast
T-47D breast = tested on: T-47D breast
OVCAR-8 ovarian = tested on: OVCAR-8 ovarian
SW-620 colon = tested on: SW-620 colon
SK-MEL-28 melanoma = tested on: SK-MEL-28 melanoma
BT-549 breast = tested on: BT-549 breast
LOX IMVI melanoma = tested on: LOX IMVI melanoma
HOP-92 NSCLC = tested on: HOP-92 NSCLC
SF-539 CNS = tested on: SF-539 CNS
HT29 colon = tested on: HT29 colon
RXF 393 renal = tested on: RXF 393 renal
NCI/ADR-RES ovarian = tested on: NCI/ADR-RES ovarian
NCI-H226 lung = tested on: NCI-H226 lung
SK-MEL-5 melanoma = tested on: SK-MEL-5 melanoma
CAKI-1 renal = tested on: CAKI-1 renal
U251 glioblastoma = tested on: U251 glioblastoma
ACHN renal = tested on: ACHN renal
OVCAR-5 ovarian = tested on: OVCAR-5 ovarian
A549 NSCLC = tested on: A549 NSCLC
M14 melanoma = tested on: M14 melanoma
EKVX NSCLC = tested on: EKVX NSCLC
MCF7 breast = tested on: MCF7 breast
MALME-3M melanoma = tested on: MALME-3M melanoma
OVCAR-3 ovarian = tested on: OVCAR-3 ovarian
HOP-62 NSCLC = tested on: HOP-62 NSCLC
KM12 colon = tested on: KM12 colon
IGROV1 ovarian = tested on: IGROV1 ovarian
NCI-H322M lung = tested on: NCI-H322M lung
A498 renal = tested on: A498 renal
HCT-15 colon = tested on: HCT-15 colon
DU-145 prostate = tested on: DU-145 prostate
PC-3 prostate = tested on: PC-3 prostate
UACC-62 melanoma = tested on: UACC-62 melanoma
UACC-257 melanoma = tested on: UACC-257 melanoma
MDA-MB-231 breast = tested on: MDA-MB-231 breast
HCC-2998 colon = tested on: HCC-2998 colon
COLO 205 colon = tested on: COLO 205 colon
SK-OV-3 ovarian = tested on: SK-OV-3 ovarian
SNB-19 CNS = tested on: SNB-19 CNS
SN12C renal = tested on: SN12C renal

## C[C@]12CC[C@H](O)CC1=CC[C@@H]1[C@@H]2CC[C@]2(C)C(c3cccnc3)=CC[C@@H]12
HL-60(TB) leukemia
  GI50: 4.06 µM
  TGI: 10.1 µM
NCI-H23 lung
  GI50: > 100 µM
  TGI: > 100 µM
TK-10 renal
  GI50: > 100 µM
  TGI: > 100 µM
786-0 renal
  GI50: 1.93 µM
  TGI: 3.88 µM
UO-31 renal
  GI50: > 100 µM
  TGI: > 100 µM
RPMI-8226 leukemia
  GI50: 2.36 µM
  TGI: 4.65 µM
SNB-75 CNS
  GI50: > 100 µM
  TGI: > 100 µM
HCT-116 colon
  GI50: 57 µM
  TGI: > 100 µM
NCI-H522 lung
  GI50: > 100 µM
  TGI: > 100 µM
MDA-MB-468 breast
  GI50: 5.46 µM
  TGI: > 100 µM
MDA-MB-435 melanoma
  GI50: > 100 µM
  TGI: > 100 µM
SF-268 CNS
  GI50: > 100 µM
  TGI: > 100 µM
MOLT-4 leukemia
  GI50: 2.99 µM
  TGI: 25 µM
NCI-H460 NSCLC
  GI50: > 100 µM
  TGI: > 100 µM
HS 578T breast
  GI50: 9.52 µM
  TGI: 49 µM
T-47D breast
  GI50: > 100 µM
  TGI: > 100 µM
OVCAR-8 ovarian
  GI50: > 100 µM
  TGI: > 100 µM
SW-620 colon
  GI50: > 100 µM
  TGI: > 100 µM
SK-MEL-28 melanoma
  GI50: > 100 µM
  TGI: > 100 µM
BT-549 breast
  GI50: 9.12 µM
  TGI: 69.7 µM
LOX IMVI melanoma
  GI50: 4.93 µM
  TGI: > 100 µM
HOP-92 NSCLC
  GI50: 25.2 µM
  TGI: > 100 µM
SF-539 CNS
  GI50: > 100 µM
  TGI: > 100 µM
HT29 colon
  GI50: 15.2 µM
  TGI: 96.1 µM
RXF 393 renal
  GI50: 1.83 µM
  TGI: 4.72 µM
NCI/ADR-RES ovarian
  GI50: > 100 µM
  TGI: > 100 µM
NCI-H226 lung
  GI50: 4.86 µM
  TGI: > 100 µM
SK-MEL-5 melanoma
  GI50: > 100 µM
  TGI: > 100 µM
CAKI-1 renal
  GI50: 52.8 µM
  TGI: > 100 µM
U251 glioblastoma
  GI50: > 100 µM
  TGI: > 100 µM
ACHN renal
  GI50: 22.9 µM
  TGI: > 100 µM
OVCAR-5 ovarian
  GI50: > 100 µM
  TGI: > 100 µM
A549 NSCLC
  GI50: 63.9 µM
  TGI: > 100 µM
M14 melanoma
  GI50: > 100 µM
  TGI: > 100 µM
EKVX NSCLC
  GI50: 25.9 µM
  TGI: > 100 µM
MCF7 breast
  GI50: > 100 µM
  TGI: > 100 µM
MALME-3M melanoma
  GI50: 3.99 µM
  TGI: 61.5 µM
OVCAR-3 ovarian
  GI50: > 100 µM
  TGI: > 100 µM
HOP-62 NSCLC
  GI50: 20 µM
  TGI: > 100 µM
KM12 colon
  GI50: 38.3 µM
  TGI: > 100 µM
IGROV1 ovarian
  GI50: 60.4 µM
  TGI: > 100 µM
NCI-H322M lung
  GI50: > 100 µM
  TGI: > 100 µM
A498 renal
  GI50: 15.8 µM
  TGI: 45.1 µM
HCT-15 colon
  GI50: 9.74 µM
  TGI: > 100 µM
DU-145 prostate
  GI50: > 100 µM
  TGI: > 100 µM
PC-3 prostate
  GI50: > 100 µM
  TGI: > 100 µM
UACC-62 melanoma
  GI50: > 100 µM
  TGI: > 100 µM
UACC-257 melanoma
  GI50: > 100 µM
  TGI: > 100 µM
MDA-MB-231 breast
  GI50: > 100 µM
  TGI: > 100 µM
HCC-2998 colon
  GI50: > 100 µM
  TGI: > 100 µM
COLO 205 colon
  GI50: 42.1 µM
  TGI: > 100 µM
SK-OV-3 ovarian
  GI50: > 100 µM
  TGI: > 100 µM
SNB-19 CNS
  GI50: > 100 µM
  TGI: > 100 µM
SN12C renal
  GI50: > 100 µM
  TGI: > 100 µM
